According to patent US12139520B2 (priority 2020, dated 2024):
Where two headings read alike, the source gives them in different places. Bridge positions count the residues as written; N and C are the ends. Square brackets hold non-standard residues; d marks the D form. Peptide text beside a SMILES is read from it. Hyp = O=C(O)[C@@H]1C[C@@H](O)CN1; Cit = NC(=O)NCCC[C@H](N)C(=O)O

Assays:
hAM1 receptor = hAM1 receptor (Homo sapiens, UniProt O60895+Q16602); assay: cAMP assay for in vitro receptor activation, hAM1-R; type: cell-based
Procedure, shortened: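 Monoclonal stable hAM1-overexpressing cells, thawed from frozen stock; 8000 cells/well in DPBS + 0.05% casein + 0.5 mM IBMX; read-out cAMP.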

[1] = Physical stability of peptide analogues (Thioflavin T fibrillation); type: physicochemical; details: maximum ThT signal normalized between hAMY maximum and buffer background; 40° C., shaking, four days; pH 7 per table title
Procedure, shortened: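 Maximum ThT emission at 480 nm, after LOESS smoothing, is given as percent of the span from buffer background to hAMY. Conditions: 50 mM buffer at pH 4 or 7, 4 μM dye, 40 °C, repeated shaking, readings every 10 min for four days.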

[2] = cAMP assay, hAM1 receptor, read-out: hAM1R EC50

hAM1 receptor, sequence (Q16602 23-461): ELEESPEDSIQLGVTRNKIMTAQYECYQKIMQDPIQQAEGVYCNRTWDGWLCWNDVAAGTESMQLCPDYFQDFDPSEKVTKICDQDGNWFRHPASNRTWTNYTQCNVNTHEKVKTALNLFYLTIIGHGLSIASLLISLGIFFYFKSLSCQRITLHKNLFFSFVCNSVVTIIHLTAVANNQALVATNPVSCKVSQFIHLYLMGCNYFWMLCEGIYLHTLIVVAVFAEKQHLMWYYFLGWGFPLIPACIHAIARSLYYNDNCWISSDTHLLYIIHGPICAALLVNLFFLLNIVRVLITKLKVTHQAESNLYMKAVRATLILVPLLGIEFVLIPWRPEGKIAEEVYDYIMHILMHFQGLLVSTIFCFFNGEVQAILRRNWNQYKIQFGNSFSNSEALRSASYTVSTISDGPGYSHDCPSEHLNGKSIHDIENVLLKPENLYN
hAM1 receptor, sequence (O60895 43-175 partner): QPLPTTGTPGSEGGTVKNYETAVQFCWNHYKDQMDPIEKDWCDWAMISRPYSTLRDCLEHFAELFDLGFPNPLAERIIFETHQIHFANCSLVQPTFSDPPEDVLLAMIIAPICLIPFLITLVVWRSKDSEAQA

SMILES	Max ThT signal (%) [1]	EC50 (hAM1 receptor; [2])	EC50 (hAM1 receptor)
CC[C@H](C)[C@H](NC(=O)[C@H](CCC(N)=O)NC(=O)[C@H](Cc1c[nH]cn1)NC(=O)[C@H](C)NC(=O)[C@H](CC(C)C)NC(=O)[C@H](CCCNC(=N)N)NC(=O)[C@H](CCC(N)=O)NC(=O)[C@@H](NC(=O)[C@@H](NC(=O)[C@@H]1CSSC[C@H](NC(=O)CN)C(=O)N[C@@H](CCCNC(=N)N)C(=O)N[C@@H]([C@@H](C)O)C(=O)NCC(=O)N[C@@H]([C@@H](C)O)C(=O)N1)[C@@H](C)O)C(C)C)C(=O)N[C@@H](Cc1ccc(O)cc1)C(=O)N[C@@H](CCC(N)=O)C(=O)N[C@@H](Cc1ccccc1)C(=O)N[C@H](C(=O)N[C@@H](CC(=O)O)C(=O)N[C@@H](CCCCN)C(=O)N[C@@H](Cc1ccccc1)C(=O)N[C@@H](CCCCN)C(=O)N[C@@H](CC(=O)O)C(=O)N[C@@H](CC(N)=O)C(=O)N[C@H](C(=O)N[C@@H](C)C(=O)N1CCC[C@H]1C(=O)N[C@@H](CCCNC(=N)N)C(=O)N[C@@H](CO)C(=O)N[C@@H](CCCCN)C(=O)N[C@H](C(=O)N[C@@H](CO)C(=O)N1CCC[C@H]1C(=O)N[C@@H](CCC(N)=O)C(=O)N1CCC[C@H]1C(=O)N1C[C@H](O)C[C@H]1C(N)=O)[C@@H](C)CC)C(C)C)[C@@H](C)O [compound 203] (H-GCRTGTCTVQRLAHQIYQFTDKFKDNVAPRSKISPQP[Hyp]-NH2; disulfide 2-7; N-terminus assumed)	1.200%	–	> 5 µM
CC[C@H](C)[C@H](NC(=O)[C@H](CCC(N)=O)NC(=O)[C@H](Cc1c[nH]cn1)NC(=O)[C@H](C)NC(=O)[C@H](CC(C)C)NC(=O)[C@H](Cc1c[nH]c2ccccc12)NC(=O)[C@H](CCC(N)=O)NC(=O)[C@@H](NC(=O)[C@@H](NC(=O)[C@@H]1CSSC[C@H](NC(=O)[C@@H](N)CCCCN)C(=O)N[C@@H](CC(N)=O)C(=O)N[C@@H]([C@@H](C)O)C(=O)N[C@@H](C)C(=O)N[C@@H]([C@@H](C)O)C(=O)N1)[C@@H](C)O)C(C)C)C(=O)N[C@@H](Cc1ccc(O)cc1)C(=O)N[C@@H](CCC(N)=O)C(=O)N[C@@H](C)C(=O)N[C@H](C(=O)N[C@@H](CC(=O)O)C(=O)N[C@@H](CCCCN)C(=O)N[C@@H](CC(=O)O)C(=O)N[C@@H](CCCCN)C(=O)N[C@@H](CC(=O)O)C(=O)N[C@@H](CC(N)=O)C(=O)N[C@H](C(=O)N[C@@H](C)C(=O)N1CCC[C@H]1C(=O)N1CCC[C@H]1C(=O)N[C@H](C(=O)N[C@@H](CC(N)=O)C(=O)N[C@H](C(=O)NCC(=O)N[C@@H](CO)C(=O)N[C@@H](CC(N)=O)C(=O)NCC(=O)N1C[C@H](O)C[C@H]1C(N)=O)C(C)C)[C@@H](C)O)C(C)C)[C@@H](C)O [compound 338] (H-KCNTATCTVQWLAHQIYQATDKDKDNVAPPTNVGSNG[Hyp]-NH2; disulfide 2-7; N-terminus assumed)	2.950%	> 5 µM	–
CC(C)C[C@H](NC(=O)[C@H](Cc1c[nH]c2ccccc12)NC(=O)[C@H](CCC(N)=O)NC(=O)[C@@H](NC(=O)[C@@H](NC(=O)[C@@H]1CSSC[C@H](NC(=O)CN)C(=O)N[C@@H](CCCNC(=N)N)C(=O)N[C@@H](Cc2ccccc2)C(=O)NCC(=O)N[C@@H]([C@@H](C)O)C(=O)N1)[C@@H](C)O)C(C)C)C(=O)N[C@@H](C)C(=O)N[C@@H](CC(N)=O)C(=O)N[C@@H](Cc1ccccc1)C(=O)N[C@@H](CC(C)C)C(=O)N[C@@H](Cc1ccc(O)cc1)C(=O)N[C@@H](CCC(N)=O)C(=O)N[C@@H](Cc1ccccc1)C(=O)N[C@H](C(=O)N[C@@H](CC(=O)O)C(=O)N[C@@H](CCCCN)C(=O)N[C@@H](CC(=O)O)C(=O)N[C@@H](CCCCN)C(=O)N[C@@H](CC(=O)O)C(=O)N[C@@H](CC(N)=O)C(=O)N[C@H](C(=O)N[C@@H](C)C(=O)N1CCC[C@H]1C(=O)N[C@@H](CCCNC(=N)N)C(=O)N[C@H](C(=O)N[C@@H](CC(N)=O)C(=O)N[C@H](C(=O)NCC(=O)N1CCC[C@H]1C(=O)N[C@@H](CCC(N)=O)C(=O)NCC(=O)N[C@@H](Cc1ccc(O)cc1)C(N)=O)C(C)C)[C@@H](C)O)C(C)C)[C@@H](C)O [compound 311] (H-GCRFGTCTVQWLANFLYQFTDKDKDNVAPRTNVGPQGY-NH2; disulfide 2-7; N-terminus assumed)	6.450%	> 5 µM	–
CC[C@H](C)[C@H](NC(=O)[C@H](CCC(N)=O)NC(=O)[C@H](Cc1c[nH]cn1)NC(=O)[C@H](C)NC(=O)[C@H](CC(C)C)NC(=O)[C@H](CCCNC(N)=O)NC(=O)[C@H](CCC(N)=O)NC(=O)[C@@H](NC(=O)[C@@H](NC(=O)[C@@H]1CSSC[C@H](NC(=O)CN)C(=O)N[C@@H](CCCNC(=N)N)C(=O)N[C@@H]([C@@H](C)O)C(=O)NCC(=O)N[C@@H]([C@@H](C)O)C(=O)N1)[C@@H](C)O)C(C)C)C(=O)N[C@@H](Cc1ccc(O)cc1)C(=O)N[C@@H](CCC(N)=O)C(=O)N[C@@H](Cc1ccccc1)C(=O)N[C@H](C(=O)N[C@@H](CC(=O)O)C(=O)N[C@@H](CCCCN)C(=O)N[C@@H](CC(=O)O)C(=O)N[C@@H](CCCCN)C(=O)N[C@@H](CC(=O)O)C(=O)N[C@@H](CC(N)=O)C(=O)N[C@H](C(=O)N[C@@H](C)C(=O)N1CCC[C@H]1C(=O)N[C@@H](CCCNC(=N)N)C(=O)N[C@@H](CO)C(=O)N[C@@H](CC(N)=O)C(=O)N[C@H](C(=O)N[C@@H](CO)C(=O)N1CCC[C@H]1C(=O)N[C@@H](CC(N)=O)C(=O)NCC(=O)N1C[C@H](O)C[C@H]1C(N)=O)C(C)C)C(C)C)[C@@H](C)O [compound 304] (H-GCRTGTCTVQ[Cit]LAHQIYQFTDKDKDNVAPRSNVSPNG[Hyp]-NH2; disulfide 2-7)	22.350%	> 5 µM	–
CC[C@H](C)[C@H](NC(=O)[C@H](CCC(N)=O)NC(=O)[C@H](Cc1c[nH]cn1)NC(=O)[C@H](C)NC(=O)[C@H](CC(C)C)NC(=O)[C@H](CCCNC(=N)N)NC(=O)[C@H](CCC(N)=O)NC(=O)[C@@H](NC(=O)[C@@H](NC(=O)[C@@H]1CSSC[C@H](NC(=O)CN)C(=O)N[C@@H](CCCNC(=N)N)C(=O)N[C@@H]([C@@H](C)O)C(=O)NCC(=O)N[C@@H]([C@@H](C)O)C(=O)N1)[C@@H](C)O)C(C)C)C(=O)N[C@@H](Cc1ccc(O)cc1)C(=O)N[C@@H](CCC(N)=O)C(=O)N[C@@H](Cc1ccccc1)C(=O)N[C@H](C(=O)N[C@@H](CC(N)=O)C(=O)N[C@@H](CCCCN)C(=O)N[C@@H](CC(=O)O)C(=O)N[C@@H](CCCCN)C(=O)N[C@@H](CC(=O)O)C(=O)N[C@@H](CC(N)=O)C(=O)N[C@H](C(=O)N[C@@H](C)C(=O)N1CCC[C@H]1C(=O)N[C@@H](CCCNC(=N)N)C(=O)N[C@@H](CO)C(=O)N[C@@H](CCCCN)C(=O)N[C@H](C(=O)N[C@@H](CO)C(=O)N1CCC[C@H]1C(=O)N[C@@H](CCC(N)=O)C(=O)N[C@@H](Cc1c[nH]c2ccccc12)C(=O)N1C[C@H](O)C[C@H]1C(N)=O)[C@@H](C)CC)C(C)C)[C@@H](C)O [compound 220] (H-GCRTGTCTVQRLAHQIYQFTNKDKDNVAPRSKISPQW[Hyp]-NH2; disulfide 2-7)	1.100%	> 5 µM	–

Further lines, with some results ahead:

Max ThT signal (%) [1]	EC50 (hAM1 receptor; [2])	SMILES	EC50 (hAM1 receptor)
31.250%	> 5 µM	CC[C@H](C)[C@H](NC(=O)[C@H](CCC(N)=O)NC(=O)[C@H](Cc1c[nH]cn1)NC(=O)[C@H](C)NC(=O)[C@H](CC(C)C)NC(=O)[C@H](CCCNC(N)=O)NC(=O)[C@H](CCC(N)=O)NC(=O)[C@@H](NC(=O)[C@@H](NC(=O)[C@@H]1CSSC[C@H](NC(=O)CN)C(=O)N[C@@H](CCCNC(=N)N)C(=O)N[C@@H]([C@@H](C)O)C(=O)NCC(=O)N[C@@H]([C@@H](C)O)C(=O)N1)[C@@H](C)O)C(C)C)C(=O)N[C@@H](Cc1ccc(O)cc1)C(=O)N[C@@H](CCC(N)=O)C(=O)N[C@@H](Cc1ccccc1)C(=O)N[C@H](C(=O)N[C@@H](CC(=O)O)C(=O)N[C@@H](CCCCN)C(=O)N[C@@H](CC(=O)O)C(=O)N[C@@H](CCCCN)C(=O)N[C@@H](CC(=O)O)C(=O)N[C@@H](CC(N)=O)C(=O)N[C@H](C(=O)N[C@@H](C)C(=O)N1CCC[C@H]1C(=O)N[C@@H](CCCNC(=N)N)C(=O)N[C@H](C(=O)N[C@@H](CCCCN)C(=O)N[C@H](C(=O)NCC(=O)N1CCC[C@H]1C(=O)N[C@@H](CCC(N)=O)C(=O)NCC(=O)N[C@@H](Cc1ccc(O)cc1)C(N)=O)C(C)C)[C@@H](C)O)C(C)C)[C@@H](C)O [compound 298] (H-GCRTGTCTVQ[Cit]LAHQIYQFTDKDKDNVAPRTKVGPQGY-NH2; disulfide 2-7; N-terminus assumed)	–
13.350%	> 5 µM	CC[C@H](C)[C@H](NC(=O)[C@H](CCC(N)=O)NC(=O)[C@H](Cc1c[nH]cn1)NC(=O)[C@H](C)NC(=O)[C@H](CC(C)C)NC(=O)[C@H](Cc1c[nH]c2ccccc12)NC(=O)[C@H](CCC(N)=O)NC(=O)[C@@H](NC(=O)[C@@H](NC(=O)[C@@H]1CSSC[C@H](NC(=O)CN)C(=O)N[C@@H](CCCNC(=N)N)C(=O)N[C@@H]([C@@H](C)O)C(=O)NCC(=O)N[C@@H]([C@@H](C)O)C(=O)N1)[C@@H](C)O)C(C)C)C(=O)N[C@@H](Cc1ccc(O)cc1)C(=O)N[C@@H](CCC(N)=O)C(=O)N[C@@H](Cc1ccccc1)C(=O)N[C@H](C(=O)N[C@@H](CC(=O)O)C(=O)N[C@@H](CCCCN)C(=O)N[C@@H](CC(=O)O)C(=O)N[C@@H](CCCCN)C(=O)N[C@@H](CC(=O)O)C(=O)N[C@@H](CC(N)=O)C(=O)N[C@H](C(=O)N[C@@H](C)C(=O)N1CCC[C@H]1C(=O)N[C@@H](CCCNC(=N)N)C(=O)N[C@@H](CO)C(=O)N[C@@H](CCCCN)C(=O)N[C@H](C(=O)NCC(=O)N1CCC[C@H]1C(=O)N[C@@H](CCC(N)=O)C(=O)NCC(=O)N[C@@H](Cc1ccc(O)cc1)C(N)=O)C(C)C)C(C)C)[C@@H](C)O [compound 344] (H-GCRTGTCTVQWLAHQIYQFTDKDKDNVAPRSKVGPQGY-NH2; disulfide 2-7; N-terminus assumed)	–
